Test results as given in ChEMBL document CHEMBL1275369, “Structural insights into the hot spot amino acid residues of mushroom tyrosinase for the bindings of thujaplicins” (Bioorg Med Chem, 2010).

T1: Tyrosinase (Agaricus bisporus, UniProt O42713)
T1 sequence (O42713 whole entry): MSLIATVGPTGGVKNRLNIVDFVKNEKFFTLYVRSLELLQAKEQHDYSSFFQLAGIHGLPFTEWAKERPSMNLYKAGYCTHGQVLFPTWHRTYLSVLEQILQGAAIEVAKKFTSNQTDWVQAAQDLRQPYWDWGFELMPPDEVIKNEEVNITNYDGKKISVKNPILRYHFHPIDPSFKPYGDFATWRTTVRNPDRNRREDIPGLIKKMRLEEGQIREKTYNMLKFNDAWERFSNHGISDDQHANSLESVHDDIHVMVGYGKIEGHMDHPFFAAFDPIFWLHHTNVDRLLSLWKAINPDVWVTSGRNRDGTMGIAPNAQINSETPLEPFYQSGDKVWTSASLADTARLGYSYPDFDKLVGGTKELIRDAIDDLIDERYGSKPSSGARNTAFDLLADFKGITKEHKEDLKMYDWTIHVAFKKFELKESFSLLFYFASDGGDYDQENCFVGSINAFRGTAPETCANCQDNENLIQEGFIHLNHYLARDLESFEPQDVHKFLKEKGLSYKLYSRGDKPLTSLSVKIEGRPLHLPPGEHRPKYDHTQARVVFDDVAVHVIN


Key:
Tyrosinase [1] = target: T1, Tyrosinase; assay: Inhibition of mushroom tyrosinase after 15 mins
Tyrosinase [2] = target: T1, Tyrosinase; assay: Competitive inhibition of mushroom tyrosinase after 15 mins by Lineweaver-Burke plot analysis
[3] = substrate: CC(C)c1ccc(O)c(=O)cc1; conditions: Agaricus bisporus; 0.02 uM
Description: Inhibition of mushroom tyrosinase at 0.02 uM after 15 mins by Michaelis-Menten constant analysis

[4] = substrate: CC(C)c1cccc(=O)c(O)c1; conditions: Agaricus bisporus; 0.20 uM
Description: Inhibition of mushroom tyrosinase at 0.20 uM after 15 mins by Michaelis-Menten constant analysis

[5] = substrate: CC(C)c1ccccc(=O)c1O; conditions: Agaricus bisporus; 3 uM
Description: Inhibition of mushroom tyrosinase at 3 uM after 15 mins by Michaelis-Menten constant analysis

[6] = substrate: CC(C)c1ccccc(=O)c1O; conditions: Agaricus bisporus; 6 uM
Description: Inhibition of mushroom tyrosinase at 6 uM after 15 mins by Michaelis-Menten constant analysis

[7] = substrate: CC(C)c1cccc(=O)c(O)c1; conditions: Agaricus bisporus; 0.05 uM
Description: Inhibition of mushroom tyrosinase at 0.05 uM after 15 mins by Michaelis-Menten constant analysis

[8] = substrate: CC(C)c1ccc(O)c(=O)cc1; conditions: Agaricus bisporus; 0.06 uM
Description: Inhibition of mushroom tyrosinase at 0.06 uM after 15 mins by Michaelis-Menten constant analysis

Molecule | IC50 (Tyrosinase [1]) [nM] | Ki (Tyrosinase [2]) [nM] | Km [3] [µM] | Km [4] [µM] | Km [5] [µM] | Km [6] [µM] | Km [7] [µM] | Km [8] [µM]
CC(C)c1ccc(O)c(=O)cc1 [GAMMA-THUJAPLICIN] | 70 | 20 |  |  |  |  |  | 
CC(C)c1ccccc(=O)c1O [ALPHA-THUJAPLICIN] | 9530 | 3300 |  |  |  |  |  | 
CC(C)c1cccc(=O)c(O)c1 [HINOKITIOL] | 90 | 60 |  |  |  |  |  | 
Tyrosinase (Agaricus bisporus), O42713 (protein) MSLIATVGPTGGVKNRLNIVDFVKNEKFFTLYVRSLELLQAKEQHDYSSFFQLAGIHGLPFTEWAKERPSMNLYKAGYCTHGQVLFPTWHRTYLSVLEQILQGAAIEVAKKFTSNQTDWVQAAQDLRQPYWDWGFELMPPDEVIKNEEVNITNYDGKKISVKNPILRYHFHPIDPSFKPYGDFATWRTTVRNPDRNRREDIPGLIKKMRLEEGQIREKTYNMLKFNDAWERFSNHGISDDQHANSLESVHDDIHVMVGYGKIEGHMDHPFFAAFDPIFWLHHTNVDRLLSLWKAINPDVWVTSGRNRDGTMGIAPNAQINSETPLEPFYQSGDKVWTSASLADTARLGYSYPDFDKLVGGTKELIRDAIDDLIDERYGSKPSSGARNTAFDLLADFKGITKEHKEDLKMYDWTIHVAFKKFELKESFSLLFYFASDGGDYDQENCFVGSINAFRGTAPETCANCQDNENLIQEGFIHLNHYLARDLESFEPQDVHKFLKEKGLSYKLYSRGDKPLTSLSVKIEGRPLHLPPGEHRPKYDHTQARVVFDDVAVHVIN |  |  | 530 | 1160 | 380 | 380 | 530 | 950
